Reference: patent publication US20220251124A1, “3,5-BIS(PHENYL)-1H-HETEROARYL DERIVATIVES AS MEDICAMENTS” (INSTITUTE OF BIOTECHNOLOGY CAS, V.V.I., priority 2019, published 2022)
Where two headings read alike, the source gives them in different places.

Key:
Assay type in all cases: cell-based
OVCAR = test: annexin V/PI staining, cell death induction, 48 hrs
Procedure: (§1) This effect seems to be based mainly on the cytostatic effect of compound 1. To define the ability to kill cells, cell death-inducing potency (cytotoxic efficacy) of DFX and compound 1 have been tested via annexin V/PI staining commonly used as a measure of apoptotic/necrotic cell death. Briefly, cells were seeded in 12-well plate at 100,000 per well, incubated with the selected compounds for 48 hours, then floating cells were spun, adherent cells trypsinized and spun as well followed by the staining with AnnexinV-FITC and PI probes. Cells were then washed with PBS and measured via Fluorescence Activated Sorter.

BxPC3 [1] = test: as above; conditions: 5 μM
Procedure: as §1

non-malignant HFP1 cells = test: as above; conditions: for dead cells (AnnexinV/PI): 48 hrs, HFP1
Procedure: as §1

non malignant cells MRC5 = test: as above
Procedure: as §1

MCF7 cells = test: crystal violet assay, cellular viability (cytostatic and cytotoxic effect), 48 hrs; conditions: Homo sapiens
Procedure: (§2) Compound 1 and a comparative compound deferasirox (DFX) were tested in their efficacy to kill/suppress proliferation of malignant breast cancer MCF7 cells representing estrogen-dependent type of breast cancer. Briefly, 10.000 cells per well were seeded in a 96-well plate on one day and the next day the tested compounds were added and incubated with the cells for 48 hrs. The cells were then fixed with 4% paraformaldehyde, stained with 0.05% crystal violet, washed with PBS, and solubilized in 1% SDS. The absorbance of the plate at 595 nm was then measured, quantifying the number of viable cells.

MDA-MB-231 cells = test: crystal violet assay, cellular viability, 48 hrs; conditions: for IC50: MDA-MB-231, crystal violet
Procedure: as §2
Compound 1 and the comparative compound deferasirox were tested in their efficacy to kill/suppress proliferation of malignant MDA-MB-231 cancer cells representing hard to treat triple negative breast cancer. The procedure is identical to that in example 12.

OVCAR3 = test: crystal violet assay, cellular viability, 48 hrs; conditions: Homo sapiens, OVCAR-3
Procedure: as §2
(§3) Compounds 1, 2 and the comparative compound deferasirox were tested in their efficacy to suppress proliferation/kill several malignant cell lines of breast, pancreatic and ovarian origin (MCF7, MDA-MB-231, BxPC3 and OVCAR3). The procedure is identical to that in example 12.

[2] = tested on: non-malignant fibroblasts (HFP1); test: crystal violet assay, cellular viability, 48 hrs; conditions: Fibroblast
Procedure: [The source words this procedure for another cell line and reports this cell line under the same test.] as §2, §3

BxPC3 [3] = test: crystal violet assay, cellular viability, 48 hrs; conditions: Homo sapiens, BXPC-3
Procedure: as §2, §3

T47D = test: crystal violet assay, cellular viability, 48 hrs; conditions: Homo sapiens, T47D (parental/control)
Procedure: [The source words this procedure for another cell line and reports this cell line under the same test.] as §2, §3

leukemia cells = test: alamarBlue viability, leukemia cells overall
Procedure: (§4) Compound 1 and a comparative compound deferasirox (DFX) were tested in their efficacy to kill/suppress proliferation of several leukemia cells. Briefly, 10.000 cells per well were seeded in a 96-well plate on one day and the next day the tested compounds were added and incubated with the cells for 48 hrs. Cellular viability was determined as the ability to reduce the probe alamarBlue™ Cell Viability Reagent.

UPF9T leukemia cell line [4] = test: alamarBlue Cell Viability Reagent, 48 hrs
Procedure: as §4

[5] = tested on: UPF16A leukemia cell line; test: alamarBlue Cell Viability Reagent, 48 hrs
Procedure: as §4

UPF4D leukemia cell line [6] = test: alamarBlue Cell Viability Reagent, 48 hrs
Procedure: as §4

UPF1H leukemia cell line [7] = test: alamarBlue Cell Viability Reagent, 48 hrs
Procedure: as §4

UPF9T leukemia cell line [8] = test: AnnexinV/PI assay, cell death induction, 48 hrs
Procedure: as §1
(§5) This effect seems to be based mainly on the cytostatic effect of compound 1. To define the ability to kill cells, cell death-inducing potency (cytotoxic efficacy) of DFX and compound 1 have been tested via annexin V/PI staining commonly used as a measure of apoptotic/necrotic cell death (see example 15). […] Compound 1 killed cancer cells with effects higher by almost 3 orders of magnitude than those of deferasirox. Such results are unprecedented and very unexpected.

[9] = tested on: UPF16A leukemia cell line; test: AnnexinV/PI assay, cell death induction, 48 hrs
Procedure: as §1, §5

UPF4D leukemia cell line [10] = test: AnnexinV/PI assay, cell death induction, 48 hrs
Procedure: as §1, §5

UPF1H leukemia cell line [11] = test: AnnexinV/PI assay, cell death induction, 48 hrs
Procedure: as §1, §5

Compound: O=C(NCCCCCCCCCC[P+](c1ccccc1)(c1ccccc1)c1ccccc1)c1ccc(-n2nc(-c3ccccc3O)nc2-c2ccccc2O)cc1 [Compound 1, (10-(4-(3,5-bis(2-hydroxyphenyl)-1H-1,2,4-triazol-1-yl)benzamido)decyl) triphenylphosphonium Chloride]
- dead cells (AnnexinV/PI) (OVCAR; 1 μM): 31.6 (10.3) %
- dead cells (AnnexinV/PI) (OVCAR; 2 μM): 39.7 (9.8) %
- dead cells (AnnexinV/PI) (OVCAR; 5 μM): 52.2 (17.5) %
- dead cells (AnnexinV/PI) (BxPC3 [1]): 37.8 (16.1) %
- dead cells (AnnexinV/PI) (non-malignant HFP1 cells; 1 μM): 12.3 (0.9) %
- dead cells (AnnexinV/PI) (non-malignant HFP1 cells; 2 μM): 13.6 (1.4) %
- dead cells (AnnexinV/PI) (non-malignant HFP1 cells; 5 μM): 23.3 (1.1) %
- concentrations at which toxic effect could be detected (non-malignant HFP1 cells; non-malignant HFP1 cells): higher than 5 μM
- dead cells (AnnexinV/PI) (non malignant cells MRC5; 1 μM): 14.5 (1.7) %
- dead cells (AnnexinV/PI) (non malignant cells MRC5; 2 μM): 19.6 (1.9) %
- dead cells (AnnexinV/PI) (non malignant cells MRC5; 5 μM): 15.0 (2.0) %
- viability at 0.03 µM (MCF7 cells; 0.030 μM, MCF7, read-out: viable cells compared to non-treated controls): 33.7%
- viability at 0.1 µM (MCF7 cells; 0.100 μM, MCF7, read-out: viable cells compared to non-treated controls): 23.6%
- viability at 0.3 µM (MCF7 cells; 0.300 μM, MCF7, read-out: viable cells compared to non-treated controls): 14.8%
- viability at 1 µM (MCF7 cells; 1 μM, MCF7, read-out: viable cells compared to non-treated controls): 7.28%
- viability at 3 µM (MCF7 cells; 3 μM, MCF7, read-out: viable cells compared to non-treated controls): 5.2%
- viability at 10 µM (MCF7 cells; 10 μM, MCF7, read-out: viable cells compared to non-treated controls): 2.31%
- viability at 30 µM (MCF7 cells; 30 μM, MCF7, read-out: viable cells compared to non-treated controls): 0.69%
- IC50 (MCF7 cells; MCF7 (parental/control), crystal violet, read-out: IC50): 8 nM
- IC50 (MCF7 cells; MCF7, crystal violet, read-out: IC50 (suppression of proliferation to 50%)): 8 nM
- viability at 0.03 µM (MDA-MB-231 cells; Homo sapiens, 0.030 μM, MDA-MB-231, read-out: viable cells compared to non-treated controls): 71.1%
- viability at 0.1 µM (MDA-MB-231 cells; Homo sapiens, 0.100 μM, MDA-MB-231, read-out: viable cells compared to non-treated controls): 52.5%
- viability at 0.3 µM (MDA-MB-231 cells; Homo sapiens, 0.300 μM, MDA-MB-231, read-out: viable cells compared to non-treated controls): 37.4%
- viability at 1 µM (MDA-MB-231 cells; Homo sapiens, 1 μM, MDA-MB-231, read-out: viable cells compared to non-treated controls): 27.8%
- viability at 3 µM (MDA-MB-231 cells; Homo sapiens, 3 μM, MDA-MB-231, read-out: viable cells compared to non-treated controls): 18.2%
- viability at 10 µM (MDA-MB-231 cells; Homo sapiens, 10 μM, MDA-MB-231, read-out: viable cells compared to non-treated controls): 0.29%
- viability at 30 µM (MDA-MB-231 cells; Homo sapiens, 30 μM, MDA-MB-231, read-out: viable cells compared to non-treated controls): 0.51%
- IC50 (MDA-MB-231 cells; Homo sapiens, MDA-MB-231, 48 h): 131 nM
- IC50 (MDA-MB-231 cells; Homo sapiens, MDA-MB-231, 48 h, text): 131 nM
- IC50 (MDA-MB-231 cells): 130 nM
- IC50 (OVCAR3): 154 nM
- IC50 [2]: 532 nM
- IC50 (BxPC3 [3]): 150 nM
- IC50 (T47D): 31 nM
- IC50 (leukemia cells; 48 h, read-out: IC50 (suppression of proliferation to 50%)): 20 to 200 nM
- same effect at a concentration lower than deferasirox (leukemia cells; IC50 versus deferasirox, leukemia cells): 40-4000 fold
- efficacy against leukemia cell lines (leukemia cells; as seen in previous tables): 20 to 200 nM
- viability at 0.03 µM (UPF9T leukemia cell line [4]; 0.030 μM, 48 hrs, UPF9T, read-out: viable cells compared to non-treated controls): 44.8%
- viability at 0.1 µM (UPF9T leukemia cell line [4]; 0.100 μM, 48 hrs, UPF9T, read-out: viable cells compared to non-treated controls): 10.5%
- viability at 0.3 µM (UPF9T leukemia cell line [4]; 0.300 μM, 48 hrs, UPF9T, read-out: viable cells compared to non-treated controls): 2%
- viability at 3 µM (UPF9T leukemia cell line [4]; 3 μM, 48 hrs, UPF9T, read-out: viable cells compared to non-treated controls): 6.7%
- viability at 10 µM (UPF9T leukemia cell line [4]; 10 μM, 48 hrs, UPF9T, read-out: viable cells compared to non-treated controls): 6.9%
- IC50 (UPF9T leukemia cell line [4]; 48 h): 20 nM
- viability at 0.03 µM ([5]; 0.030 μM, 48 hrs, UPF16A, read-out: viable cells compared to non-treated controls): 75.7%
- viability at 0.1 µM ([5]; 0.100 μM, 48 hrs, UPF16A, read-out: viable cells compared to non-treated controls): 50.2%
- viability at 0.3 µM ([5]; 0.300 μM, 48 hrs, UPF16A, read-out: viable cells compared to non-treated controls): 30.8%
- viability at 3 µM ([5]; 3 μM, 48 hrs, UPF16A, read-out: viable cells compared to non-treated controls): 4%
- viability at 10 µM ([5]; 10 μM, 48 hrs, UPF16A, read-out: viable cells compared to non-treated controls): 0.31%
- IC50 ([5]; 48 h): 110 nM
- viability at 0.03 µM (UPF4D leukemia cell line [6]; 0.030 μM, 48 hrs, UPF4D, read-out: viable cells compared to non-treated controls): 90.1%
- viability at 0.1 µM (UPF4D leukemia cell line [6]; 0.100 μM, 48 hrs, UPF4D, read-out: viable cells compared to non-treated controls): 49.8%
- viability at 0.3 µM (UPF4D leukemia cell line [6]; 0.300 μM, 48 hrs, UPF4D, read-out: viable cells compared to non-treated controls): 0.56%
- viability at 3 µM (UPF4D leukemia cell line [6]; 3 μM, 48 hrs, UPF4D, read-out: viable cells compared to non-treated controls): 0.74%
- viability at 10 µM (UPF4D leukemia cell line [6]; 10 μM, 48 hrs, UPF4D, read-out: viable cells compared to non-treated controls): 0.1%
- IC50 (UPF4D leukemia cell line [6]; 48 h): 90 nM
- viability at 0.03 µM (UPF1H leukemia cell line [7]; 0.030 μM, 48 hrs, read-out: viable cells compared to non-treated controls): 94.1%
- viability at 0.1 µM (UPF1H leukemia cell line [7]; 0.100 μM, 48 hrs, read-out: viable cells compared to non-treated controls): 81.9%
- viability at 0.3 µM (UPF1H leukemia cell line [7]; 0.300 μM, 48 hrs, read-out: viable cells compared to non-treated controls): 31.1%
- viability at 3 µM (UPF1H leukemia cell line [7]; 3 μM, 48 hrs, read-out: viable cells compared to non-treated controls): 5.8%
- viability at 10 µM (UPF1H leukemia cell line [7]; 10 μM, 48 hrs, read-out: viable cells compared to non-treated controls): 0.04%
- IC50 (UPF1H leukemia cell line [7]; 48 h): 230 nM
- dead cells (AnnexinV/PI) (UPF9T leukemia cell line [8]; 0.1 μM): 88.2 (4.8) %
- dead cells (AnnexinV/PI) (UPF9T leukemia cell line [8]; 1 μM): 99.0 (0.6) %
- dead cells (AnnexinV/PI) ([9]; 0.1 μM): 45.4 (16.2) %
- dead cells (AnnexinV/PI) ([9]; 1 μM): 71.8 (20.2) %
- dead cells (AnnexinV/PI) (UPF4D leukemia cell line [10]; 0.1 μM): 87.3 (13.4) %
- dead cells (AnnexinV/PI) (UPF4D leukemia cell line [10]; 1 μM): 96.7 (3.9) %
- dead cells (AnnexinV/PI) (UPF1H leukemia cell line [11]; 0.1 μM): 85.3 (10.9) %
- dead cells (AnnexinV/PI) (UPF1H leukemia cell line [11]; 1 μM): 98.3 (0.6) %
